This note sets out measurements from patent US20230295200A1 (REGENTS OF THE UNIVERSITY OF MICHIGAN, priority 2022, published 2023).

One assay concerns the target T1, STAT6 protein (Homo sapiens, UniProt P42226).
T1 sequence (P42226 1-847): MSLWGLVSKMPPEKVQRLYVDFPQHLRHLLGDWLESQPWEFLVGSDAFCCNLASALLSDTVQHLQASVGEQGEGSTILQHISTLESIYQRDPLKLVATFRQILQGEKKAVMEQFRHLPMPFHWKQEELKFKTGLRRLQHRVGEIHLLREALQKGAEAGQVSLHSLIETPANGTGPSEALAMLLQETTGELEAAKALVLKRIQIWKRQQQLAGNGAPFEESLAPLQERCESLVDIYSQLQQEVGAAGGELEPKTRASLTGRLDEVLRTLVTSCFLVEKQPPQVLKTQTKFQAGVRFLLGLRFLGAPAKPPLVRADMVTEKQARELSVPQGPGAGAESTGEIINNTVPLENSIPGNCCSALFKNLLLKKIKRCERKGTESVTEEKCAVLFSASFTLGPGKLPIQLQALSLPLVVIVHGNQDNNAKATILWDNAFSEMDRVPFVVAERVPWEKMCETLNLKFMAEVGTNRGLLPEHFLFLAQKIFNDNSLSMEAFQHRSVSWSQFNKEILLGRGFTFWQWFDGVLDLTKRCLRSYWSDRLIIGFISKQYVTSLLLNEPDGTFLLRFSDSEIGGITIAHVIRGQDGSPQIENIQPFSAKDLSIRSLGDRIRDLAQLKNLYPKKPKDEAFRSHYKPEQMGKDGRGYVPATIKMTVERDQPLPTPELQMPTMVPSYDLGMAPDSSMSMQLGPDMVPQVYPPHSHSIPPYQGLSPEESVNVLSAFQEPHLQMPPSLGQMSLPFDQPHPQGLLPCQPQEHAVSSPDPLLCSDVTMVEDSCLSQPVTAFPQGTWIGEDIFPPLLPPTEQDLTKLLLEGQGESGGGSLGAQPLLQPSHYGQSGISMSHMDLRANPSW
The assay can be described thus: Fluorescence polarization (FP) binding assay, STAT6. Particulars: FP competition, 5 nM fluorescein-labeled tracer, 200 nM protein, PBS pH7.4; read-out: Binding STAT6. Put shortly: (§1)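 Fluorescein-labelled tracer (5 nM) with 200 nM STAT5 and/or STAT6 protein in PBS pH 7.4, 0.01% BGG, 0.01% Tween-20, 2 mM DTT. Mixed 15 min, then equilibrated 1 h at room temperature; read by fluorescence polarization, constants from nonlinear curve fitting.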
(In general: Polarisation of emitted light reports the rotation of a fluorescent probe.)

The next assay deals with T2, STAT5A (Homo sapiens, UniProt P42229).
T2 sequence (P42229 1-794): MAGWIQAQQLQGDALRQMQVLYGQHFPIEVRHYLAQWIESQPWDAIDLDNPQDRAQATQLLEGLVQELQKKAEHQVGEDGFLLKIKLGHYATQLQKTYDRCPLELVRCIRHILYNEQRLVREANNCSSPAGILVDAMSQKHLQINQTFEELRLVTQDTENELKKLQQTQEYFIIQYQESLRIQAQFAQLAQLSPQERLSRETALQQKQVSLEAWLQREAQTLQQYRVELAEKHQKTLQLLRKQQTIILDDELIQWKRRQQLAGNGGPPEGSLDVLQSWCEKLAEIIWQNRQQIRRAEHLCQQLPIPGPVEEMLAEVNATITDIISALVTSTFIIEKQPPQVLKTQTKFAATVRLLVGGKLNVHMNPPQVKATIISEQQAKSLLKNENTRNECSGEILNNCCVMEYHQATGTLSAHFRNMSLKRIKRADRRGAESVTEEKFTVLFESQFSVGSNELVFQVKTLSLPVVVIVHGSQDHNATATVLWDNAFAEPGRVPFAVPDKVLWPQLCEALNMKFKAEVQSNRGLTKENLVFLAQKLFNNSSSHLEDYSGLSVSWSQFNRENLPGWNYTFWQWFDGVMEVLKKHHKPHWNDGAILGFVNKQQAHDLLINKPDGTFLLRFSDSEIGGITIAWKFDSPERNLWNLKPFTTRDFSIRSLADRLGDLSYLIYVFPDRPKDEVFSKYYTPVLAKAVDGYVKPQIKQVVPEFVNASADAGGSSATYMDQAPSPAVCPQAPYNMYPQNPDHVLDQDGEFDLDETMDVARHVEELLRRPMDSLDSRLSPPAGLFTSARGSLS
The assay can be described thus: Fluorescence polarization (FP) binding assay, STAT5A. The note with it: FP competition, 5 nM fluorescein-labeled tracer, 200 nM protein, PBS pH7.4. Put shortly: as §1

For `CC(C)(C)[C@H](NC(=O)c1cc2cc(C(F)(F)P(=O)(O)O)ccc2s1)C(=O)N1Cc2ccccc2C[C@H]1C(=O)N1CCOC(c2ccccn2)C1` (stereo partly drawn) [Compound 216, ((2-(((2S)-3,3-dimethyl-1-oxo-1-((3S)-3-(2-(pyridin-2-yl)morpholine-4-carbonyl)-3,4-dihydroisoquinolin-2(1H)-yl)butan-2-yl)carbamoyl)benzo[b]thiophen-5-yl)difluoromethyl)phosphonic acid], the Ki on STAT6 protein and on STAT5A was over 10000 nM throughout.
For the molecule `CC(C)(C)[C@H](NC(=O)c1cc2cc(C(F)(F)P(=O)(O)O)ccc2s1)C(=O)N1CCC[C@H]1C(=O)Nc1ccc(-c2ccccc2)s1` [Compound 305, ((2-(((S)-3,3-dimethyl-1-oxo-1-((S)-2-((5-phenylthiophen-2-yl)carbamoyl)pyrrolidin-1-yl)butan-2-yl)carbamoyl)benzo[b]thiophen-5-yl)difluoromethyl)phosphonic acid], the Ki on STAT6 protein lay in the range of 1000 to 10000 nM; at STAT5A, 100 to 1000 nM.
In the same order, the values of `CC(C)(C)[C@H](NC(=O)c1cc2cc(C(F)(F)P(=O)(O)O)ccc2s1)C(=O)N1CCCCC[C@H]1C(=O)Nc1ccc(-c2ccccc2)s1` [Compound 306, ((2-(((S)-3,3-dimethyl-1-oxo-1-((S)-2-((5-phenylthiophen-2-yl)carbamoyl)azepan-1-yl)butan-2-yl)carbamoyl)benzo[b]thiophen-5-yl)difluoromethyl)phosphonic acid] are over 10000 nM and 1000 to 10000 nM.
On to `CCO[C@@H]1CCN(C(=O)[C@@H](NC(=O)c2cc3cc(C(F)(F)P(=O)(O)O)ccc3s2)C(C)(C)C)[C@@H]1C(=O)N1CCO[C@H](c2ccccc2)C1` [Compound 307, ((2-(((S)-1-((2S,3R)-3-ethoxy-2-((R)-2-phenylmorpholine-4-carbonyl)pyrrolidin-1-yl)-3,3-dimethyl-1-oxobutan-2-yl)carbamoyl)benzo[b]thiophen-5-yl)difluoromethyl)phosphonic acid], for which the Ki is 100 to 1000 nM on STAT6 protein and 1000 to 10000 nM on STAT5A.
Consider `CCO[C@H]1CCN(C(=O)[C@@H](NC(=O)c2cc3cc(C(F)(F)P(=O)(O)O)ccc3s2)C(C)(C)C)[C@@H]1C(=O)N1CCO[C@H](c2ccccc2)C1` [Compound 308, ((2-(((S)-1-((2S,3S)-3-ethoxy-2-((R)-2-phenylmorpholine-4-carbonyl)pyrrolidin-1-yl)-3,3-dimethyl-1-oxobutan-2-yl)carbamoyl)benzo[b]thiophen-5-yl)difluoromethyl)phosphonic acid], for which the Ki at STAT6 protein and on STAT5A was 1000 to 10000 nM throughout.
For the molecule `CN(C)C(=O)CCN(C(=O)[C@@H]1CCCN1C(=O)[C@@H](NC(=O)c1cc2cc(C(F)(F)P(=O)(O)O)ccc2s1)C(C)(C)C)c1ccc(-c2nccs2)cc1` [Compound 309, ((2-(((S)-1-((S)-2-((3-(dimethylamino)-3-oxopropyl)(4-(thiazol-2-yl)phenyl)carbamoyl)pyrrolidin-1-yl)-3,3-dimethyl-1-oxobutan-2-yl)carbamoyl)benzo[b]thiophen-5-yl)difluoromethyl)phosphonic acid], the results for the Ki at STAT6 protein and on STAT5A were 100 to 1000 nM and 1000 to 10000 nM, respectively.
As for `CN(C)C(=O)CCN(C(=O)[C@@H]1CCCN1C(=O)[C@@H](NC(=O)c1cc2cc(C(F)(F)P(=O)(O)O)ccc2s1)C(C)(C)C)c1ccc2ccccc2c1` [Compound 317, ((2-(((S)-1-((S)-2-((3-(dimethylamino)-3-oxopropyl)(naphthalen-2-yl)carbamoyl)pyrrolidin-1-yl)-3,3-dimethyl-1-oxobutan-2-yl)carbamoyl)benzo[b]thiophen-5-yl)difluoromethyl)phosphonic acid], the figures for the Ki on STAT6 protein and on STAT5A were 100 to 1000 nM and 1000 to 10000 nM, respectively.
With `CN(C)C(=O)CCN(C(=O)[C@@H]1CCCN1C(=O)[C@@H](NC(=O)c1cc2cc(C(F)(F)P(=O)(O)O)ccc2s1)C(C)(C)C)c1ccc(-c2ccccc2)cc1` [Compound 318], the Ki at STAT6 protein and on STAT5A was 1000 to 10000 nM in each case.
For `CN(C)C(=O)CCN(C(=O)[C@@H]1CCCN1C(=O)[C@@H](NC(=O)c1cc2cc(C(F)(F)P(=O)(O)O)ccc2s1)C(C)(C)C)c1cccc(-c2nccs2)c1` [Compound 320, ((2-(((S)-1-((S)-2-((3-(dimethylamino)-3-oxopropyl)(3-(thiazol-2-yl)phenyl)carbamoyl)pyrrolidin-1-yl)-3,3-dimethyl-1-oxobutan-2-yl)carbamoyl)benzo[b]thiophen-5-yl)difluoromethyl)phosphonic acid], the Ki at STAT6 protein is 1000 to 10000 nM; on STAT5A it was over 10000 nM.
